Converted amounts (≈) assume the structure as drawn.
Columns and labels:
HT-29 = assay: Anticancer activity against human HT-29 cell assessed as cell growth inhibition measured after 24 to 72 hrs by MTT assay; type: functional, cell-based
[1] = Anticancer activity against EAC cell assessed as cell growth inhibition measured after 24 to 72 hrs by MTT assay; type: functional, cell-based; conditions: Ehrlich
WRL68 = assay: Anticancer activity against human WRL68 cell assessed as cell growth inhibition measured after 24 to 72 hrs by MTT assay; type: functional, cell-based
MCF7 = assay: Anticancer activity against human MCF7 cell assessed as cell growth inhibition measured after 24 to 72 hrs by MTT assay; type: functional, cell-based
Escherichia coli [2] = assay: Antibacterial activity against Escherichia coli ATCC 10536 assessed as bacterial growth inhibition measured after 24 to 48 hrs by agar dilution assay; type: functional; conditions: time 24-48 hrs
Pseudomonas aeruginosa [3] = assay: Antibacterial activity against Pseudomonas aeruginosa ATCC 11632 assessed as bacterial growth inhibition measured after 24 to 48 hrs by agar dilution assay; type: functional; conditions: time 24-48 hrs
Pseudomonas aeruginosa [4] = assay: Antibacterial activity against Pseudomonas aeruginosa assessed as bacterial growth inhibition by broth microdilution assay; type: functional
Escherichia coli [5] = assay: Potency index, ratio of ampicillin MIC to test compound MIC for antimicrobial activity against Escherichia coli assessed as bacterial growth inhibition by broth microdilution assay; type: functional
Pseudomonas aeruginosa [6] = assay: Potency index, ratio of ampicillin MIC to test compound MIC for antimicrobial activity against Pseudomonas aeruginosa assessed as bacterial growth inhibition by broth microdilution assay; type: functional
Escherichia coli [7] = assay: Antibacterial activity against Escherichia coli assessed as bacterial growth inhibition by broth microdilution assay; type: functional
Staphylococcus aureus [8] = assay: Potency index, ratio of ampicillin MIC to test compound MIC for antimicrobial activity against Staphylococcus aureus assessed as bacterial growth inhibition by broth microdilution assay; type: functional
Staphylococcus aureus [9] = assay: Antibacterial activity against Staphylococcus aureus assessed as bacterial growth inhibition by broth microdilution assay; type: functional
[10] = test system: Mycolicibacterium smegmatis; assay: Antibacterial activity against Mycobacterium smegmatis assessed as bacterial growth inhibition by serial dilution method; type: functional
Staphylococcus aureus [11] = assay: Antibacterial activity against Staphylococcus aureus assessed as bacterial growth inhibition by serial dilution method; type: functional
Pseudomonas aeruginosa [12] = assay: Antibacterial activity against Pseudomonas aeruginosa assessed as bacterial growth inhibition by serial dilution method; type: functional
[13] = test system: Mycobacterium tuberculosis; assay: Antimycobacterial activity against extensive drug Mycobacterium tuberculosis assessed as bacterial growth inhibition by LJ slant assay; type: functional
Staphylococcus aureus [14] = assay: Antibacterial activity against Staphylococcus aureus assessed as zone of inhibition at 50 mg/ml cup plate assay; type: functional; conditions: read-out: IZ
Escherichia coli [15] = assay: Antibacterial activity against Escherichia coli assessed as zone of inhibition at 50 mg/ml cup plate assay; type: functional; conditions: read-out: IZ
[16] = test system: Mycobacterium tuberculosis; assay: Antimycobacterial activity against multidrug Mycobacterium tuberculosis assessed as bacterial growth inhibition by LJ slant assay; type: functional
[17] = test system: Mycobacterium tuberculosis; assay: Potency index, ratio of ciprofloxacin MIC to test compound MIC for antimycobacterial activity against Mycobacterium tuberculosis H37Rv assessed as bacterial growth inhibition by LJ slant assay; type: functional
[18] = test system: Mycobacterium tuberculosis; assay: Antimycobacterial activity against Mycobacterium tuberculosis H37Rv assessed as bacterial growth inhibition by LJ slant assay; type: functional
Staphylococcus aureus [19] = assay: Antibacterial activity against ciprofloxacin resistant Staphylococcus aureus assessed as bacterial growth inhibition by broth microdilution assay; type: functional
Streptococcus pneumoniae [20] = assay: Antibacterial activity against Streptococcus pneumoniae assessed as bacterial growth inhibition measured after 16 to 24 hrs by broth microdilution assay; type: functional; conditions: time 16-24 hrs
Streptococcus suis = assay: Antibacterial activity against Streptococcus suis clinical isolates assessed as bacterial growth inhibition measured after 16 to 24 hrs by broth microdilution assay; type: functional; conditions: time 16-24 hrs
Staphylococcus aureus [21] = assay: Antibacterial activity against Staphylococcus aureus clinical isolates assessed as bacterial growth inhibition measured after 16 to 24 hrs by broth microdilution assay; type: functional; conditions: time 16-24 hrs
[22] = test system: Staphylococcus haemolyticus; assay: Antibacterial activity against Staphylococcus haemolyticus clinical isolates assessed as bacterial growth inhibition measured after 16 to 24 hrs by broth microdilution assay; type: functional; conditions: time 16-24 hrs
Staphylococcus aureus [23] = assay: Antibacterial activity against methicillin resistant Staphylococcus aureus assessed as bacterial growth inhibition measured after 16 to 24 hrs by broth microdilution assay; type: functional; conditions: time 16-24 hrs
[24] = test system: Staphylococcus epidermidis; assay: Antibacterial activity against Staphylococcus epidermidis clinical isolates assessed as bacterial growth inhibition measured after 16 to 24 hrs by broth microdilution assay; type: functional; conditions: time 16-24 hrs
Enterococcus = assay: Antibacterial activity against vancomycin resistant Enterococcus assessed as bacterial growth inhibition measured after 16 to 24 hrs by broth microdilution assay; type: functional; conditions: time 16-24 hrs
Staphylococcus aureus [25] = assay: Antibacterial activity against Staphylococcus aureus assessed as bacterial growth inhibition measured after 16 to 24 hrs by broth microdilution assay; type: functional; conditions: time 16-24 hrs
Streptococcus agalactiae = assay: Antibacterial activity against Streptococcus agalactiae assessed as bacterial growth inhibition measured after 16 to 24 hrs by broth microdilution assay; type: functional; conditions: time 16-24 hrs
Streptococcus pneumoniae [26] = assay: Antibacterial activity against Streptococcus pneumoniae clinical isolates assessed as bacterial growth inhibition measured after 16 to 24 hrs by broth microdilution assay; type: functional; conditions: time 16-24 hrs
Haemophilus parasuis = assay: Antibacterial activity against Haemophilus parasuis clinical isolates assessed as bacterial growth inhibition measured after 16 to 24 hrs by broth microdilution assay; type: functional; conditions: Glaesserella parasuis; time 16-24 hrs
Enterococcus faecium = assay: Antibacterial activity against Enterococcus faecium clinical isolates assessed as bacterial growth inhibition measured after 16 to 24 hrs by broth microdilution assay; type: functional; conditions: time 16-24 hrs
Enterococcus faecalis [27] = assay: Antibacterial activity against Enterococcus faecalis assessed as bacterial growth inhibition measured after 16 to 24 hrs by broth microdilution assay; type: functional; conditions: time 16-24 hrs
Enterococcus faecalis [28] = assay: Antibacterial activity against Enterococcus faecalis clinical isolates assessed as bacterial growth inhibition measured after 16 to 24 hrs by broth microdilution assay; type: functional; conditions: time 16-24 hrs
Haemophilus influenzae = assay: Antibacterial activity against Haemophilus influenzae assessed as bacterial growth inhibition measured after 16 to 24 hrs by broth microdilution assay; type: functional; conditions: time 16-24 hrs
Staphylococcus aureus [29] = assay: Antibacterial activity against Staphylococcus aureus Newman assessed as bacterial growth inhibition by agar diffusion assay; type: functional
Proteus mirabilis = assay: Antibacterial activity against efflux deficient Proteus mirabilis DSM-4479 assessed as bacterial growth inhibition by agar diffusion assay; type: functional
Pseudomonas aeruginosa [30] = assay: Antibacterial activity against efflux deficient Pseudomonas aeruginosa DSM-30104 assessed as bacterial growth inhibition by agar diffusion assay; type: functional
Pseudomonas aeruginosa [31] = assay: Antibacterial activity against efflux deficient Pseudomonas aeruginosa PA14 assessed as bacterial growth inhibition by agar diffusion assay; type: functional
Escherichia coli [32] = assay: Antibacterial activity against efflux deficient Escherichia coli TolC assessed as bacterial growth inhibition by agar diffusion assay; type: functional
Escherichia coli [33] = assay: Antibacterial activity against Escherichia coli DSM-1116 assessed as bacterial growth inhibition by agar diffusion assay; type: functional

With O=C(CNc1ccc(-c2nc3ccc(Cl)c(Cl)c3s2)cc1)c1c(O)c2ccccc2n(-c2ccccc2)c1=O as the molecule, how does the IC50 (HT-29) read?
The IC50 was 398 nM.

And the IC50 [1]?
The IC50 was 398 nM.

What about the IC50 (WRL68) of the same molecule?
Its IC50 is 398 nM.

And the IC50 (MCF7)?
The IC50 was 398 nM.

What about the MIC (Escherichia coli [2]) of the same molecule?
The MIC was 0.5 µg/mL (≈ 0.873 µM).

And the MIC (Pseudomonas aeruginosa [3])?
Its MIC is 1 µg/mL (≈ 1.75 µM).

For CCn1cc(C(=O)NN2C(=O)/C(=C/C=C/c3ccccc3)SC2=S)c(=O)c2cc(F)ccc21, which MIC (Pseudomonas aeruginosa [4]) is on record?
The MIC was < 1 µg/mL.

And the Ratio (Escherichia coli [5])?
Its Ratio is >10.

What about the Ratio (Pseudomonas aeruginosa [6]) of the same molecule?
Its Ratio is >10.

And the MIC (Escherichia coli [7])?
Its MIC is < 1 µg/mL.

And the Ratio (Staphylococcus aureus [8])?
The Ratio was >10.

What about the MIC (Staphylococcus aureus [9]) of the same molecule?
The MIC was < 1 µg/mL.

For COC(=O)c1ccc(NC(=O)COC(=O)c2ccncc2)cc1OCCC(=O)NC1CCN(c2c(F)cc3c(=O)c(C(=O)O)cn(C4CC4)c3c2Cl)C1 (stereo not drawn), which MIC [10] is on record?
Its MIC is 0.125 µg/mL (≈ 0.167 µM).

What about the MIC (Staphylococcus aureus [11]) of the same molecule?
Its MIC is 0.125 µg/mL (≈ 0.167 µM).

And the MIC (Pseudomonas aeruginosa [12])?
Its MIC is 0.125 µg/mL (≈ 0.167 µM).

Which MIC [13] does the source give for O=c1c(-c2nnc(S)o2)cn(C2CC2)c2cc(N3CCNCC3)c(F)cc12 here?
The MIC was 0.063 µg/mL (≈ 0.163 µM).

What about the zone of inhibition at 50000 µg/mL (Staphylococcus aureus [14]) of the same molecule?
Its zone of inhibition at 50000 µg/mL is 13 mm.

What about the zone of inhibition at 50000 µg/mL (Escherichia coli [15]) of the same molecule?
The zone of inhibition at 50000 µg/mL was 12 mm.

What about the MIC [16] of the same molecule?
The MIC was 0.063 µg/mL (≈ 0.163 µM).

What about the Ratio [17] of the same molecule?
The Ratio was “>=32”.

What about the MIC [18] of the same molecule?
The MIC was 0.063 µg/mL (≈ 0.163 µM).

Which MIC (Staphylococcus aureus [19]) does the source give for CCCCCC(=O)N(CCNCCNc1ccc(CN2CCN(c3cc4c(cc3F)CC(C(=O)O)=CN4C3CC3)CC2)cc1)CCN(CCN(CCN(CCN(CCN(CCN(CCN(CCN(CCN(CCN(CCN(CCN(CCN(CCN(CCN(CCN(CCN(CCN(CCN(CCN(CCN(CCN(CCN(CCN(CCN(CCN(CCN(CCN(CCN(CCN(CCNC(C)=O)C(C)=O)C(C)=O)C(C)=O)C(C)=O)C(C)=O)C(C)=O)C(C)=O)C(C)=O)C(C)=O)C(C)=O)C(C)=O)C(C)=O)C(C)=O)C(C)=O)C(C)=O)C(C)=O)C(C)=O)C(C)=O)C(C)=O)C(C)=O)C(C)=O)C(C)=O)C(C)=O)C(C)=O)C(C)=O)C(C)=O)C(C)=O)C(=O)CCCCC)C(=O)CCCCC)C(=O)CCCCC here?
Its MIC is 0.44 µg/mL (≈ 0.129 µM).

With C[C@H]1CCc2c(N3CCC(O)(COc4ccc(N5C[C@H](CO)OC5=O)cc4F)CC3)c(F)cc3c(=O)c(C(=O)O)cn1c23 as the molecule, how does the MIC (Streptococcus pneumoniae [20]) read?
Its MIC is 0.016 µg/mL (≈ 0.0267 µM).

What about the MIC (Streptococcus suis) of the same molecule?
The MIC was ≤ 0.063 µg/mL.

What about the MIC (Staphylococcus aureus [21]) of the same molecule?
The MIC was ≤ 0.063 µg/mL.

What about the MIC [22] of the same molecule?
Its MIC is ≤ 0.063 µg/mL.

What about the MIC (Staphylococcus aureus [23]) of the same molecule?
Its MIC is 0.016 µg/mL (≈ 0.0267 µM).

What about the MIC [24] of the same molecule?
The MIC was ≤ 0.063 µg/mL.

What about the MIC (Enterococcus) of the same molecule?
The MIC was 0.016 µg/mL (≈ 0.0267 µM).

And the MIC (Staphylococcus aureus [25])?
The MIC was 0.016 µg/mL (≈ 0.0267 µM).

What about the MIC (Streptococcus agalactiae) of the same molecule?
Its MIC is 0.016 µg/mL (≈ 0.0267 µM).

And the MIC (Streptococcus pneumoniae [26])?
Its MIC is ≤ 0.063 µg/mL.

And the MIC (Haemophilus parasuis)?
Its MIC is ≤ 0.063 µg/mL.

And the MIC (Enterococcus faecium)?
The MIC was ≤ 0.063 µg/mL.

What about the MIC (Enterococcus faecalis [27]) of the same molecule?
Its MIC is 0.016 µg/mL (≈ 0.0267 µM).

What about the MIC (Enterococcus faecalis [28]) of the same molecule?
The MIC was ≤ 0.063 µg/mL.

And the MIC (Haemophilus influenzae)?
The MIC was 0.016 µg/mL (≈ 0.0267 µM).

What does the source list for N#Cc1c(-c2ccccc2)nc(SCC(=O)N2CCN(c3cc4c(cc3F)c(=O)c(C(=O)O)cn4C3CC3)CC2)[nH]c1=O?
MIC (Staphylococcus aureus [29]): ≤ 0.03 µg/mL; MIC (Proteus mirabilis): ≤ 0.03 µg/mL; MIC (Pseudomonas aeruginosa [30]): ≤ 0.03 µg/mL; MIC (Pseudomonas aeruginosa [31]): ≤ 0.03 µg/mL; MIC (Escherichia coli [32]): ≤ 0.03 µg/mL; MIC (Escherichia coli [33]): ≤ 0.03 µg/mL

Reference: ChEMBL document CHEMBL5360532, “Current scenario of quinolone hybrids with potential antibacterial activity against ESKAPE pathogens” (Eur J Med Chem, 2023)
